Each molecule was assayed against Beta-2 adrenergic receptor (Homo sapiens) (UniProt P07550) (assay: beta2AR agonists driving receptor internalization, dose response, cell-based, FAP fluorogen, flow cytometry, powder set 5 (AID 651912)). Details: AM2.2-beta2AR cells, 90 min.
Sequence of Beta-2 adrenergic receptor (Homo sapiens) (P07550 whole entry, looked up): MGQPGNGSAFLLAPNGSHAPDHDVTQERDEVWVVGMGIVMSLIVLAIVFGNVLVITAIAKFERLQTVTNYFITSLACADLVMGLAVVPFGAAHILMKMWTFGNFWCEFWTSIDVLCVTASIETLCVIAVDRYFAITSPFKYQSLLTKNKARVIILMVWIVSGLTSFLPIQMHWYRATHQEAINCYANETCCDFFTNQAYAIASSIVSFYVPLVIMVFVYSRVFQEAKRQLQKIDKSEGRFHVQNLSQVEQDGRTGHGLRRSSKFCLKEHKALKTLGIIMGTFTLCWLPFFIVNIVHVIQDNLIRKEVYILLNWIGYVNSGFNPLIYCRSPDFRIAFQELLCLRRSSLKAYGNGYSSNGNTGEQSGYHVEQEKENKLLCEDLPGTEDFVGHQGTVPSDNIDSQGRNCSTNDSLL

Row | Compound | EC50
1 | O=C(C1CCCN1S(=O)(=O)c1ccc(Cl)cc1)N1CCN(c2ccccn2)CC1 (configuration not stated) | 0.219 µM
2 | CCC(=O)Nc1ccc(S(=O)(=O)N2CCCCC2CC)cc1 (configuration not stated) | 0.0048 µM
3 | CN(CC(=O)N1CCN(c2ccc(F)cc2)CC1)S(=O)(=O)c1ccc(Br)cc1 | 0.336 µM
4 | CC1CCCCN1S(=O)(=O)c1ccc(NC(=O)c2cccnc2)cc1 (configuration not stated) | 0.134 µM

The remaining lines, values ahead:

Row | EC50 | Compound
5 | 0.0802 µM | CC(=O)Nc1ccc(S(=O)(=O)N2CCCCC2C)cc1 (configuration not stated)
6 | 0.133 µM | CCC1CCCCN1S(=O)(=O)c1ccc(NC(C)=O)cc1 (configuration not stated)
7 | 4.03 µM | Cc1cccc(C(=O)Nc2ccc(S(=O)(=O)N3CCCCC3C)cc2)c1 (configuration not stated)
